Results on one compound are retold here after patent US9814730B2 (FLAMINA HOLDING AG, priority 2013, dated 2017).

For this test, the system named is autocrine HCG production in adult cells. The experiment in a line: Inhibition of autocrine HCG production in adult cells (in vitro experiments). Conditions: very low amount of active agent. Format: cell-based, human. As for the experimental part:
Extrapolations of in vitro experiments indicate that already 0.1 mg to 2 mg per kg body weight and per year, preferably 0.5 mg to 1 mg per kg body weight and per year of the active agent are sufficient. However, as detailed below the dosage can be up to a factor 5 higher and can thus range between 0.1 mg to 10 mg per kg body weight and per year.

For the compound `C/C=C\[C@]1(O)CC[C@H]2[C@@H]3CCC4=CC(=O)CCC4=C3[C@@H](c3ccc(N(C)C)cc3)C[C@@]21C` [RU534, Aglepristone], the “inhibition of autocrine HCG production” value is “successfully achieved”.
